Experimental findings from patent US9511134B2, “Inducing immune responses to influenza virus using polypeptide and nucleic acid compositions” (priority 2006, dated 2016) are described below.

“And” between values parts separate entries of the source, which are not always exact repeats. Equal values may be shown once. Read-outs that look alike come from different tables or passages of the source. Where no end group is shown, it is not given here.

One experiment has as its target DRB1*0405 (Homo sapiens, UniProt P01903+P01911, A100R/A169T/D86S/F76Y/I96L/K127E/L162R/M171V/N62H/P40V/Q125Y/R42H/S133A/S149N/S66Y/V115G/V209L/W38E). As to the kind of experiment: biochemical. To be noted: read-out: IC50 nM to purified HLA DRB1*0405. It is filed as binding.
Another experiment deals with DRB1*0404 (Homo sapiens, UniProt P01903+P01911, A100R/A169T/F76Y/I96L/K127E/L162R/M171V/N62H/P40V/Q125Y/R42H/S133A/S149N/S66Y/V209L/W38E). As to the kind of experiment: biochemical. It is filed as binding. To be noted: IC50 nM to purified HLA DRB1*0404.
A further experiment deals with T1, DRB1*0101 (Homo sapiens, UniProt P01903+P01911, A100R/D57E/F55L/F60I/F76Y/I96L/L162R/M171V/P40L/Q125E/R42F/V115G/Y59C).
T1 construct: made in house; host or cells: EBV-transformed homozygous human B cell lines, transfected fibroblasts or single-allele 721.221 transfectants
As to the kind of experiment: biochemical. It is filed as binding.

The next experiment deals with CD4+ PBMC. It is filed as cell-based, human. To be noted: IFNγ ELISPOT, CD8-depleted; for Human influenza epitope-specific immune response, donor 3501: PBMC rested five days.
In another experiment the target is T2, DRB1*0401 (Homo sapiens, UniProt P01903+P01911, A100K/A169T/F76Y/I96L/K127E/L162R/M171V/N62H/P40V/Q125Y/R42H/S133A/S149N/S66Y/V115G/V209L/W38E).
T2 construct: made in house; host or cells: EBV-transformed homozygous human B cell lines, transfected fibroblasts or single-allele 721.221 transfectants
As to the kind of experiment: biochemical. The format is binding. To be noted: read-out: IC50 nM to purified HLA DRB1*0401.

The target of the next experiment is DRB1*1302 (Homo sapiens, UniProt P01903+P01911, A100E/A169T/K41T/L162R/M171V/P40S/Q125H/Q178H/Q39Y/Q99D/R42S/S66N/T262R/V115G/W38E/Y61H). As to the kind of experiment: biochemical. It is filed as binding. To be noted: read-out: IC50 nM to purified HLA DRB1*1302.
Chain of DRB1*1302 (P01903 26-254 limits assumed, other chains not shown): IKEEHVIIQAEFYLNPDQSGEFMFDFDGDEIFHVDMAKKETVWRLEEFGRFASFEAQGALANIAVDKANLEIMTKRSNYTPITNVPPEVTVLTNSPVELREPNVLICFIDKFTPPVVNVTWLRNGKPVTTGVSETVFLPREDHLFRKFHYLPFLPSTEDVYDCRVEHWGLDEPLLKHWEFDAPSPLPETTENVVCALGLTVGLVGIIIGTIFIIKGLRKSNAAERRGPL
The target in another experiment is T3, DRB1*0301 (Homo sapiens, UniProt P01903+P01911, A100K/A102G/A103R/A169T/F55Y/I96L/K41T/L162R/M171V/P40S/Q125H/Q178H/Q39Y/R42S/S66N/T106N/T262R/W38E/Y61H).
T3 construct: made in house; host or cells: EBV-transformed homozygous human B cell lines, transfected fibroblasts or single-allele 721.221 transfectants
T3 sequence (P01903 26-254, other chains not shown): as the sequence (P01903 26-254 limits assumed, other chains not shown) above
As to the kind of experiment: biochemical. It is filed as binding.

Where [1] appears, read: IC50 nM to purified HLA DRB1*0101.
Setting [2] is: five day expansion with peptide pool.

What is called IC50 is the concentration that inhibits the measured activity by half. `CSCC[C@H](NC(=O)[C@H](CO)NC(=O)[C@@H](NC(=O)[C@H](Cc1ccccc1)NC(=O)[C@H](CC(N)=O)NC(=O)[C@@H](N)C(C)C)C(C)C)C(=O)N[C@@H](CCC(=O)O)C(=O)N[C@@H](Cc1ccccc1)C(=O)N[C@@H](CO)C(=O)N[C@@H](CC(C)C)C(=O)N[C@H](C(=O)N[C@@H](CC(=O)O)C(=O)N1CCC[C@H]1C(=O)N[C@@H](CCCNC(=N)N)C(=O)N[C@@H](CC(C)C)C(=O)O)[C@@H](C)O` [Flu.PA.521]: on DRB1*0405, the IC50 was found to be 7700 nM.
With ALQLLFEVEQEIRTF [Flu.NS2.178], the IC50 against DRB1*0404 came out at 2150 nM; on DRB1*0101 (setting [1]), 3490 nM; on DRB1*0405, 8870 nM.
Consider `CC[C@H](C)[C@H](NC(=O)[C@H](C)NC(=O)CNC(=O)[C@@H](N)CCC(=O)O)C(=O)N[C@H](C(=O)NCC(=O)N[C@@H](CCC(=O)O)C(=O)N[C@H](C(=O)N[C@@H](CO)C(=O)N1CCC[C@H]1C(=O)N[C@@H](CC(C)C)C(=O)N1CCC[C@H]1C(=O)N[C@@H](CO)C(=O)N[C@@H](CC(C)C)C(=O)N1CCC[C@H]1C(=O)O)[C@@H](C)CC)C(C)C` [Flu.NS1.156], for which the IC50 on DRB1*0404 was 13 nM; against DRB1*0101 (setting [1]), 85 nM; against DRB1*0101 (IC50 nM to purified HLA DRB1*0101, Table 4) it was 85 nM; on DRB1*0401 (Table 4), 48 nM; at DRB1*0401, 48 nM and 27 nM. The “Human influenza epitope-specific immune response, donor 3501” value with CD4+ PBMC is listed as “Positive (Donors were considered positive for a peptide if the number of spots was over 3 times background as determined by responses to irrelevant peptides (non influenza))”.
In the case of MVAYMLERELVRKTR [Flu.PB2.205], the IC50 on DRB1*1302 is 2080 nM; at DRB1*0101 (setting [1]), 97 nM; at DRB1*0405, 5540 nM; on DRB1*0401, 166 nM.
On to `CC[C@H](C)[C@H](NC(=O)[C@H](CCCNC(=N)N)NC(=O)[C@H](C)NC(=O)[C@H](CCCNC(=N)N)NC(=O)[C@H](CO)NC(=O)[C@@H](N)C(C)C)C(=O)N[C@@H](CC(=O)O)C(=O)N[C@@H](C)C(=O)N[C@@H](CCCNC(=N)N)C(=O)N[C@H](C(=O)N[C@@H](CC(=O)O)C(=O)N[C@@H](Cc1ccccc1)C(=O)N[C@@H](CCC(=O)O)C(=O)N[C@@H](CO)C(=O)NCC(=O)O)[C@@H](C)CC` [Flu.PB1.722], for which the concentration for half-maximal inhibition (IC50) at DRB1*0405 was 3010 nM.
For the compound `CC[C@H](C)[C@H](NC(=O)CNC(=O)[C@@H](N)CCCNC(=N)N)C(=O)N[C@@H](CC(C)C)C(=O)N[C@@H](CCC(=O)O)C(=O)N[C@@H](CC(=O)O)C(=O)N[C@@H](CCC(=O)O)C(=O)N[C@@H](CCC(N)=O)C(=O)N[C@@H](CCSC)C(=O)N[C@@H](Cc1ccc(O)cc1)C(=O)N[C@@H](CCC(N)=O)C(=O)N[C@@H](CCCCN)C(=O)N[C@@H](CS)C(=O)N[C@@H](CS)C(=O)N[C@@H](CC(N)=O)C(=O)O` [Flu.PB1.683], the IC50 at DRB1*1302 stood at 18000 nM; at DRB1*0301, 43 nM; at DRB1*0405, 3280 nM; at DRB1*0401, 5740 nM.
Consider `CC[C@H](C)[C@H](NC(=O)[C@H](CCC(N)=O)NC(=O)CNC(=O)[C@H](C)N)C(=O)N[C@@H](CO)C(=O)N[C@H](C(=O)N[C@@H](CCC(N)=O)C(=O)N1CCC[C@H]1C(=O)N[C@H](C(=O)N[C@@H](Cc1ccccc1)C(=O)N[C@@H](CO)C(=O)N[C@H](C(=O)N[C@@H](CCC(N)=O)C(=O)N[C@@H](CCCNC(=N)N)C(=O)N[C@@H](CC(N)=O)C(=O)O)C(C)C)[C@@H](C)O)C(C)C` [Flu.NP.406], for which, in the experiment with CD4+ PBMC, the “Human influenza epitope-specific immune response, donor 3501” value is reported as “Positive (Donors were considered positive for a peptide if the number of spots was over 3 times background as determined by responses to irrelevant peptides (non influenza))”.
With `CSCC[C@H](NC(=O)[C@H](C)NC(=O)[C@H](CCC(N)=O)NC(=O)[C@@H](NC(=O)[C@H](CCSC)NC(=O)[C@H](CCC(N)=O)NC(=O)[C@H](CCCNC(=N)N)NC(=O)[C@H](C)NC(=O)[C@H](CCC(N)=O)NC(=O)[C@H](CO)NC(=O)[C@H](C)NC(=O)[C@@H](NC(=O)[C@H](CCC(=O)O)NC(=O)[C@H](CCSC)NC(=O)[C@H](C)N)C(C)C)C(C)C)C(=O)O` [Flu.M1.205], in the experiment on CD4+ PBMC (setting [2]), the “Human influenza epitope-specific immune response, donor 6018” value was “Positive (Donors were considered positive for a peptide if the number of spots was over 3 times background as determined by responses to irrelevant peptides (non influenza))” and the “Human influenza epitope-specific immune response, donor AC02” value was “Positive (Donors were considered positive for a peptide if the number of spots was over 3 times background as determined by responses to irrelevant peptides (non influenza))”.
Regarding `CC[C@H](C)[C@H](NC(=O)[C@H](CC(C)C)NC(=O)[C@@H]1CCCN1C(=O)[C@@H](N)CC(N)=O)C(=O)N[C@@H](CCCNC(=N)N)C(=O)N[C@@H](Cc1c[nH]cn1)C(=O)N[C@@H](CCC(=O)O)C(=O)N[C@@H](CC(N)=O)C(=O)N[C@@H](CCCNC(=N)N)C(=O)N[C@@H](CCSC)C(=O)N[C@H](C(=O)N[C@@H](CC(C)C)C(=O)N[C@@H](C)C(=O)N[C@@H](CO)C(=O)N[C@H](C(=O)O)[C@@H](C)O)C(C)C` [Flu.M1.173], in the experiment on CD4+ PBMC (setting [2]), the “Human influenza epitope-specific immune response, donor AC02” value was “Positive (Donors were considered positive for a peptide if the number of spots was over 3 times background as determined by responses to irrelevant peptides (non influenza))”.
Turning to GSYFFGDNAEEYDN [Flu.NP.488], the IC50 on DRB1*0405 stood at 65 nM; at DRB1*0401 it was 1950 nM.
As for `CC[C@H](C)[C@H](NC(=O)[C@H](CC(C)C)NC(=O)[C@H](CS)NC(=O)[C@H](CCC(=O)O)NC(=O)[C@@H](N)CCC(=O)O)C(=O)N[C@@H](CC(N)=O)C(=O)N[C@@H](CC(=O)O)C(=O)N1CCC[C@H]1C(=O)N[C@@H](Cc1c[nH]c2ccccc12)C(=O)N[C@H](C(=O)N[C@@H](CC(C)C)C(=O)N[C@@H](CC(C)C)C(=O)N[C@@H](CC(N)=O)C(=O)N[C@@H](C)C(=O)N[C@@H](CO)C(=O)O)C(C)C` [Flu.PA.694], the IC50 worked out at 183 nM at DRB1*0404, 618 nM against DRB1*0301, 34 nM on DRB1*0101 (setting [1]) and 15000 nM at DRB1*0405.
Consider `CC[C@H](C)[C@H](NC(=O)[C@H](CC(C)C)NC(=O)[C@H](C)NC(=O)[C@H](CO)NC(=O)[C@H](CCCNC(=N)N)NC(=O)[C@H](C)NC(=O)[C@H](CC(C)C)NC(=O)[C@H](Cc1ccccc1)NC(=O)[C@@H](NC(=O)[C@H](CC(C)C)NC(=O)[C@@H](N)CC(=O)O)[C@@H](C)CC)C(=O)N[C@@H](CC(C)C)C(=O)N[C@@H](CCCNC(=N)N)C(=O)NCC(=O)N[C@@H](CO)C(=O)O` [Flu.NP.258], for which the “Human influenza epitope-specific immune response, donor 6018” value in the experiment on CD4+ PBMC (setting [2]) is “Positive (Donors were considered positive for a peptide if the number of spots was over 3 times background as determined by responses to irrelevant peptides (non influenza))”.
Take `CC[C@H](C)[C@H](NC(=O)[C@H](CCC(=O)O)NC(=O)[C@H](CCCNC(=N)N)NC(=O)[C@H](CCCCN)NC(=O)[C@H](CC(C)C)NC(=O)[C@H](CCCCN)NC(=O)[C@H](CCCNC(=N)N)NC(=O)[C@@H](N)Cc1ccc(O)cc1)C(=O)N[C@H](C(=O)N[C@@H](Cc1ccccc1)C(=O)N[C@@H](Cc1c[nH]cn1)C(=O)NCC(=O)N[C@@H](C)C(=O)N[C@@H](CCCCN)C(=O)N[C@@H](CCC(=O)O)C(=O)O)[C@@H](C)O` [Flu.M1.103]: in the experiment on CD4+ PBMC (setting [2]), the “Human influenza epitope-specific immune response, donor 716” value was “Positive (Donors were considered positive for a peptide if the number of spots was over 3 times background as determined by responses to irrelevant peptides (non influenza))” and the “Human influenza epitope-specific immune response, donor AC08” value was “Positive (Donors were considered positive for a peptide if the number of spots was over 3 times background as determined by responses to irrelevant peptides (non influenza))”.
